Experimental data taken from ChEMBL document CHEMBL3991601, “The target landscape of clinical kinase drugs” (Science, 2017).
Activity calls are given as the source filed them. Rule as the data show it, for most assays here: actives have a measured Kd and inactives only a lower limit.

target: Calcium/calmodulin-dependent protein kinase type II subunit delta (Homo sapiens, UniProt Q13557)
Also: in the data inactive means no Kd found up to 30 µM.

Calcium/calmodulin-dependent protein kinase type II subunit delta, sequence (Q13557 whole entry): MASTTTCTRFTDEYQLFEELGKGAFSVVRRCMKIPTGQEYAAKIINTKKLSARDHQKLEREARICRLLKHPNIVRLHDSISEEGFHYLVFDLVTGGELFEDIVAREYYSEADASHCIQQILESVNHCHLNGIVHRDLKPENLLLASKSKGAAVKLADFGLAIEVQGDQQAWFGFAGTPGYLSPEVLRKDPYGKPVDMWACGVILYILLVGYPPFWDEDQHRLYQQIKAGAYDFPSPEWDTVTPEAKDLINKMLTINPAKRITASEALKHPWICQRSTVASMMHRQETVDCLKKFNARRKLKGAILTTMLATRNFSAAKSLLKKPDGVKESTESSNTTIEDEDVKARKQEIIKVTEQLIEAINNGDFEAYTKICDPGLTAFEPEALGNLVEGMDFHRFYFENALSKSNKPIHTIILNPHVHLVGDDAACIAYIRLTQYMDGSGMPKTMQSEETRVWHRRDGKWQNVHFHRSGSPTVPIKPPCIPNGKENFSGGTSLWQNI

Compound | Kd
CNC(=O)CN1CCC(Oc2cc3c(Nc4cccc(Cl)c4F)ncnc3cc2OC)CC1 [SAPITINIB] | > 30 µM (inactive)
C[C@@H](c1ccc2nccn2c1)n1nnc2ncc(-c3cnn(C)c3)nc21 [SAVOLITINIB] | > 30 µM (inactive)
CN1CCC(CNc2ccc3ncc(-c4cccc(OC(F)(F)F)c4)n3n2)CC1 [SGI-1776] | > 30 µM (inactive)

target: T1, Cysteine--tRNA ligase, cytoplasmic (Homo sapiens, UniProt P49589)
T1 sequence (P49589 whole entry): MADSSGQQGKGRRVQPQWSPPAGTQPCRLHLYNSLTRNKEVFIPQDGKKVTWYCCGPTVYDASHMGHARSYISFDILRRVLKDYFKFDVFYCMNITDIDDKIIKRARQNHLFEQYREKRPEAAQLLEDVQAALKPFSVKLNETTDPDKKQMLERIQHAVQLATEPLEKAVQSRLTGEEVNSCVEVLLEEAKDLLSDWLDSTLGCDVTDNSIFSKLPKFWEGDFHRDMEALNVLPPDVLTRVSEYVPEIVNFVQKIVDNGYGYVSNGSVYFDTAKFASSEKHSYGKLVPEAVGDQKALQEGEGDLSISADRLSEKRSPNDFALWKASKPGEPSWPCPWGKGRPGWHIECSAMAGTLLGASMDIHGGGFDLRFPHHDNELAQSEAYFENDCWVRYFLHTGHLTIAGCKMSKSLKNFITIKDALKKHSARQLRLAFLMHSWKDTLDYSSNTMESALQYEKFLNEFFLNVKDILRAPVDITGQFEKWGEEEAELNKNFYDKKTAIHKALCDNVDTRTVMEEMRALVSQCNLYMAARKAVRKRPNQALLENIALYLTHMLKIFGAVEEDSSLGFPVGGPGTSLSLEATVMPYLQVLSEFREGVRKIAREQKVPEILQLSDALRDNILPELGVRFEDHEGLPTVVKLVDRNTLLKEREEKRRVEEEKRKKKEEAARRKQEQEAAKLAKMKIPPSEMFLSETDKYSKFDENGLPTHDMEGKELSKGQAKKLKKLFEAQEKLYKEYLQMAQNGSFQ

Compound | Kd
CNC(=O)CN1CCC(Oc2cc3c(Nc4cccc(Cl)c4F)ncnc3cc2OC)CC1 [SAPITINIB] | > 30 µM (inactive)
C[C@@H](c1ccc2nccn2c1)n1nnc2ncc(-c3cnn(C)c3)nc21 [SAVOLITINIB] | > 30 µM (inactive)
CN1CCC(CNc2ccc3ncc(-c4cccc(OC(F)(F)F)c4)n3n2)CC1 [SGI-1776] | > 30 µM (inactive)

target: Casein kinase I isoform alpha (Homo sapiens, UniProt P48729)
Sequence (P48729 whole entry, canonical isoform): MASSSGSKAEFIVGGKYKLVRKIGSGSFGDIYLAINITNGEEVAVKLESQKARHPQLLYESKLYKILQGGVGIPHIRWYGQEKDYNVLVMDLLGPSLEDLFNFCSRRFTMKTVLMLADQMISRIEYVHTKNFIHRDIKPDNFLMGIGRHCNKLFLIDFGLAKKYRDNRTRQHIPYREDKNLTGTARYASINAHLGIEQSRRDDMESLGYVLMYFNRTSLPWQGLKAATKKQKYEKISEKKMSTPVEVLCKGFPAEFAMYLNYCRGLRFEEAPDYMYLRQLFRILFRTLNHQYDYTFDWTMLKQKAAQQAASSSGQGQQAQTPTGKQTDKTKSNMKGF

Compound | Kd
CNC(=O)CN1CCC(Oc2cc3c(Nc4cccc(Cl)c4F)ncnc3cc2OC)CC1 [SAPITINIB] | > 30 µM (inactive)
C[C@@H](c1ccc2nccn2c1)n1nnc2ncc(-c3cnn(C)c3)nc21 [SAVOLITINIB] | > 30 µM (inactive)
CN1CCC(CNc2ccc3ncc(-c4cccc(OC(F)(F)F)c4)n3n2)CC1 [SGI-1776] | > 30 µM (inactive)

target: Casein kinase I isoform gamma-1 (Homo sapiens, UniProt Q9HCP0)
Sequence (Q9HCP0 whole entry, canonical isoform): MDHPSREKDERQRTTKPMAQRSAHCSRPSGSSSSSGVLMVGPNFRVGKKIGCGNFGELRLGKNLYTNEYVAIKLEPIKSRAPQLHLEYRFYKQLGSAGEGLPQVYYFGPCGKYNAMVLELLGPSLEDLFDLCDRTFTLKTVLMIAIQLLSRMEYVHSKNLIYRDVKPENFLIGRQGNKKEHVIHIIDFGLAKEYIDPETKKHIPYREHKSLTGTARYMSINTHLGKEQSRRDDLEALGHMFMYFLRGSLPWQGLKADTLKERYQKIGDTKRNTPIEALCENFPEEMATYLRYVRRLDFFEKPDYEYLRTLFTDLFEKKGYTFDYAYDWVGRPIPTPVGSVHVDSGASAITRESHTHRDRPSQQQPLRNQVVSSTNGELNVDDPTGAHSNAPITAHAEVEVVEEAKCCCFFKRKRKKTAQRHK

Compound | Kd
CNC(=O)CN1CCC(Oc2cc3c(Nc4cccc(Cl)c4F)ncnc3cc2OC)CC1 [SAPITINIB] | > 30 µM (inactive)
C[C@@H](c1ccc2nccn2c1)n1nnc2ncc(-c3cnn(C)c3)nc21 [SAVOLITINIB] | > 30 µM (inactive)
CN1CCC(CNc2ccc3ncc(-c4cccc(OC(F)(F)F)c4)n3n2)CC1 [SGI-1776] | > 30 µM (inactive)

target: T2, dCTP pyrophosphatase 1 (Homo sapiens, UniProt Q9H773)
T2 sequence (Q9H773 whole entry): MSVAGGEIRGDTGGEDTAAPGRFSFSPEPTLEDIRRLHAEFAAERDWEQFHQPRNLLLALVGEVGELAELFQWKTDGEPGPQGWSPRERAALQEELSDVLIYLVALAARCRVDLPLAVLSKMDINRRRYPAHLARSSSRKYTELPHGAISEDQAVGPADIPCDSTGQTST

Compound | Kd
CNC(=O)CN1CCC(Oc2cc3c(Nc4cccc(Cl)c4F)ncnc3cc2OC)CC1 [SAPITINIB] | > 30 µM (inactive)
C[C@@H](c1ccc2nccn2c1)n1nnc2ncc(-c3cnn(C)c3)nc21 [SAVOLITINIB] | > 30 µM (inactive)
CN1CCC(CNc2ccc3ncc(-c4cccc(OC(F)(F)F)c4)n3n2)CC1 [SGI-1776] | > 30 µM (inactive)

target: T3, Discoidin domain-containing receptor 2 (Homo sapiens, UniProt Q16832)
T3 sequence (Q16832 whole entry): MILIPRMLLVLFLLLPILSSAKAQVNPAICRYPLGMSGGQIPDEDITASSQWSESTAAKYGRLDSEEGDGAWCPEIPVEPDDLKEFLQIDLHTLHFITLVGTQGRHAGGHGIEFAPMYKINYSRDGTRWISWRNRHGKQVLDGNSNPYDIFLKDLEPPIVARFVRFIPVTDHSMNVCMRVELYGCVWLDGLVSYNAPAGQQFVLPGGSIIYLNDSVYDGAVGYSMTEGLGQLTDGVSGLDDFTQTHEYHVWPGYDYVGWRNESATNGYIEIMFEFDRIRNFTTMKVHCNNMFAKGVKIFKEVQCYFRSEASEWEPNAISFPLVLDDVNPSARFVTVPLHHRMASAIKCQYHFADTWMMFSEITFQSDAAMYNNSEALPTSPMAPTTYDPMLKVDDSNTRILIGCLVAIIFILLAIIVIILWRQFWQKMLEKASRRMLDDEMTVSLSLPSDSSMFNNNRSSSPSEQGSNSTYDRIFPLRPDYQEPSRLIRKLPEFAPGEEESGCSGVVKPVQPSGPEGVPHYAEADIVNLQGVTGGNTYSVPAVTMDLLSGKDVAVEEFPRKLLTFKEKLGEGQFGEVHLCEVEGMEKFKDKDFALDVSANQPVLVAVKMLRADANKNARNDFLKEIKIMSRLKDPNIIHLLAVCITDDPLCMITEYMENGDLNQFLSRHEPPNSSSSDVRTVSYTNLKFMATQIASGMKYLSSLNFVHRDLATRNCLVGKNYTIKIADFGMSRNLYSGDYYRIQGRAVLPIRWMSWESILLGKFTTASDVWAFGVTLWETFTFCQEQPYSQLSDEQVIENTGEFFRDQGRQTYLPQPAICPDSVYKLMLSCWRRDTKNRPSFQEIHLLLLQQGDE

Compound | Kd
CNC(=O)CN1CCC(Oc2cc3c(Nc4cccc(Cl)c4F)ncnc3cc2OC)CC1 [SAPITINIB] | > 30 µM (inactive)
C[C@@H](c1ccc2nccn2c1)n1nnc2ncc(-c3cnn(C)c3)nc21 [SAVOLITINIB] | > 30 µM (inactive)
CN1CCC(CNc2ccc3ncc(-c4cccc(OC(F)(F)F)c4)n3n2)CC1 [SGI-1776] | > 30 µM (inactive)

target: Glycogen synthase kinase-3 alpha (Homo sapiens, UniProt P49840)
Sequence (P49840 whole entry): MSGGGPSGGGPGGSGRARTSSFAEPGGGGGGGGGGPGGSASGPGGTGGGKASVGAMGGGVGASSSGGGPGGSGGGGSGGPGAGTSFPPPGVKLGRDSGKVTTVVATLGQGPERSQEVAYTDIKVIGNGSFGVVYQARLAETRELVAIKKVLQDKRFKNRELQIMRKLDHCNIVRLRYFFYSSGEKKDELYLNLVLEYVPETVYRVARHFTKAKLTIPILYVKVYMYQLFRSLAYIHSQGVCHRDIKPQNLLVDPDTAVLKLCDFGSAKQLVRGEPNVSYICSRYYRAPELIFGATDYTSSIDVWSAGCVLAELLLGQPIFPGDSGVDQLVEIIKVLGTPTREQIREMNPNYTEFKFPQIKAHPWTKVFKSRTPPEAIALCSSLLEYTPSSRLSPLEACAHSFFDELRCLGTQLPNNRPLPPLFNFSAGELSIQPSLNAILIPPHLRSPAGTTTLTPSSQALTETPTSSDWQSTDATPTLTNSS

Compound | Kd
CNC(=O)CN1CCC(Oc2cc3c(Nc4cccc(Cl)c4F)ncnc3cc2OC)CC1 [SAPITINIB] | > 30 µM (inactive)
C[C@@H](c1ccc2nccn2c1)n1nnc2ncc(-c3cnn(C)c3)nc21 [SAVOLITINIB] | > 30 µM (inactive)
CN1CCC(CNc2ccc3ncc(-c4cccc(OC(F)(F)F)c4)n3n2)CC1 [SGI-1776] | > 30 µM (inactive)

target: Ribosomal protein S6 kinase alpha-6 (Homo sapiens, UniProt Q9UK32)
Sequence (Q9UK32 whole entry): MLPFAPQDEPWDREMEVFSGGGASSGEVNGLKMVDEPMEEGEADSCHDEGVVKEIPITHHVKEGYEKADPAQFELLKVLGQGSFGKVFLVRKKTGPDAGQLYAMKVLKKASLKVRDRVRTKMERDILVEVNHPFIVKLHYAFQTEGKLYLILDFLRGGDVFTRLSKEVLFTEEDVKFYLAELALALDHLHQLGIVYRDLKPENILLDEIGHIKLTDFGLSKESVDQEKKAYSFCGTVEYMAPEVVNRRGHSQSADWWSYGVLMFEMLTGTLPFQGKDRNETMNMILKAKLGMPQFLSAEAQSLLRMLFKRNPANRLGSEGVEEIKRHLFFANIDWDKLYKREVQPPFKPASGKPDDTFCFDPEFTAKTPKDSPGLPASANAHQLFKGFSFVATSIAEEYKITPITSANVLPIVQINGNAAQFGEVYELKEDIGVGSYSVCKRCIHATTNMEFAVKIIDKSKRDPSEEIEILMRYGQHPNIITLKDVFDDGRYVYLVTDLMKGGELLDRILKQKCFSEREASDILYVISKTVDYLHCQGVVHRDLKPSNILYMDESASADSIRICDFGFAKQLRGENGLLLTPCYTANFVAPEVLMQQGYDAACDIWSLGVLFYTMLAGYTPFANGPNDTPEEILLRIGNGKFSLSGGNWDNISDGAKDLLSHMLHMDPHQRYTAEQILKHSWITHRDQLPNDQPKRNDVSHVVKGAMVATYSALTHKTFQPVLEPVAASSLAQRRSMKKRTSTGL

Compound | Kd
CNC(=O)CN1CCC(Oc2cc3c(Nc4cccc(Cl)c4F)ncnc3cc2OC)CC1 [SAPITINIB] | > 30 µM (inactive)
C[C@@H](c1ccc2nccn2c1)n1nnc2ncc(-c3cnn(C)c3)nc21 [SAVOLITINIB] | > 30 µM (inactive)
CN1CCC(CNc2ccc3ncc(-c4cccc(OC(F)(F)F)c4)n3n2)CC1 [SGI-1776] | 23.8 µM (active)

target: T4, Serine/threonine-protein kinase TAO3 (Homo sapiens, UniProt Q9H2K8)
T4 sequence (Q9H2K8 whole entry): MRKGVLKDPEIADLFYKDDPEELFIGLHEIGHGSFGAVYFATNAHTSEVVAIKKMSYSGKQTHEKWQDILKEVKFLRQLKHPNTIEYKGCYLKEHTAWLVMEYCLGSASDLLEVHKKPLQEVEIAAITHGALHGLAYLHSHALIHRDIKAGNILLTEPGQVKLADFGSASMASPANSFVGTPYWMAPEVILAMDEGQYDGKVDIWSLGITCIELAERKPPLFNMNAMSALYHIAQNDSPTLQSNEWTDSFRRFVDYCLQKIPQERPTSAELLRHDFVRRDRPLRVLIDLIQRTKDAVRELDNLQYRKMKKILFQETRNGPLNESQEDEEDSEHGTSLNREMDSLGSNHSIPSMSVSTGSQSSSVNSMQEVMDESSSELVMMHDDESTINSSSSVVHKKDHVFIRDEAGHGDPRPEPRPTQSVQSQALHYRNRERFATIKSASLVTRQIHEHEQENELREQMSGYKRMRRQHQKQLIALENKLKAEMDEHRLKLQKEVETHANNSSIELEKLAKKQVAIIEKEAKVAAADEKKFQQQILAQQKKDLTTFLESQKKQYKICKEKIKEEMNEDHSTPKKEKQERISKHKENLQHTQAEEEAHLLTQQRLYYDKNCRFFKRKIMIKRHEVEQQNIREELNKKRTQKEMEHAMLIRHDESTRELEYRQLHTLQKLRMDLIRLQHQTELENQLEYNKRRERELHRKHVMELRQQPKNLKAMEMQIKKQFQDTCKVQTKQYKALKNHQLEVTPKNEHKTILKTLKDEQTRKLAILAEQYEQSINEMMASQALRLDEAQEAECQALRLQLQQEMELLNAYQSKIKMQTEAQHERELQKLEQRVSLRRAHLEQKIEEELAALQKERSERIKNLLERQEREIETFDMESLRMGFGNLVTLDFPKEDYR

Compound | Kd
CNC(=O)CN1CCC(Oc2cc3c(Nc4cccc(Cl)c4F)ncnc3cc2OC)CC1 [SAPITINIB] | > 30 µM (inactive)
C[C@@H](c1ccc2nccn2c1)n1nnc2ncc(-c3cnn(C)c3)nc21 [SAVOLITINIB] | > 30 µM (inactive)
CN1CCC(CNc2ccc3ncc(-c4cccc(OC(F)(F)F)c4)n3n2)CC1 [SGI-1776] | > 30 µM (inactive)
